Source: PubChem BioAssay (NCI)
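Tested at 5 concentrations; 48 h exposure; 96-well plates; endpoints linearly interpolated, else capped at highest concentration. At the GI50, growth is halved. TGI: concentration producing complete growth inhibition.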

What was measured:
Assay in all cases: inhibition of tumour cell growth, NCI panel, 48 h
HCT-15 colon = system: HCT-15 colon
HT29 colon = system: HT29 colon
M14 melanoma = system: M14 melanoma
NCI-H226 lung = system: NCI-H226 lung
NCI-H23 lung = system: NCI-H23 lung
NCI-H460 lung = system: NCI-H460 lung
OVCAR-5 ovarian = system: OVCAR-5 ovarian
SF-268 CNS = system: SF-268 CNS
SF-295 CNS = system: SF-295 CNS
UACC-257 melanoma = system: UACC-257 melanoma

| SMILES | TGI (HCT-15 colon) | TGI (HT29 colon) | TGI (M14 melanoma) | TGI (NCI-H226 lung) | TGI (NCI-H23 lung) | TGI (NCI-H460 lung) | TGI (OVCAR-5 ovarian) | TGI (SF-268 CNS) | TGI (SF-295 CNS) | TGI (UACC-257 melanoma) | GI50 (HCT-15 colon) | GI50 (HT29 colon) | GI50 (M14 melanoma) | GI50 (NCI-H226 lung) | GI50 (NCI-H23 lung) | GI50 (NCI-H460 lung) | GI50 (OVCAR-5 ovarian) | GI50 (SF-268 CNS) | GI50 (SF-295 CNS) | GI50 (UACC-257 melanoma) |
| --- | --- | --- | --- | --- | --- | --- | --- | --- | --- | --- | --- | --- | --- | --- | --- | --- | --- | --- | --- | --- |
| CC1=CC(C)(C)Nc2ccc(CSc3ccccc3)cc21 | > 100 µM | 38.2 µM | 65.2 µM | > 100 µM | > 100 µM | 67.4 µM | 40.4 µM | > 100 µM | 48.2 µM | 59.3 µM |  |  |  |  |  |  |  |  |  |  |
| O=C1C(Cl)=C(N2CCN(c3ccccn3)CC2)C(=O)c2ncccc21 | 3.12 µM | 9.93 µM | 3 µM | 18.2 µM | 5.47 µM | 13.4 µM | 21.8 µM | 8.17 µM | 18.8 µM | 3.24 µM |  |  |  |  |  |  |  |  |  |  |
| CC(C)(C)NC(=O)C12C3C4C1C1C2C3C41C(=O)NC(C)(C)C (stereo not given) | > 100 µM | > 100 µM | > 100 µM |  | > 100 µM | > 100 µM | > 100 µM | > 100 µM | > 100 µM | > 100 µM |  |  |  |  |  |  |  |  |  |  |
| O=C(O)CCC(NC(=O)c1ccc(CNc2nc3ccccc3nc2C(=O)O)cc1)C(=O)O (stereo not given) | > 100 µM | > 100 µM | > 100 µM | > 100 µM | > 100 µM |  | > 100 µM | > 100 µM | > 100 µM | > 100 µM |  |  |  |  |  |  |  |  |  |  |
| COc1ccc(Nc2nc3ccccc3nc2C(=O)O)cc1OC | > 100 µM | > 100 µM | > 100 µM | > 100 µM | > 100 µM | > 100 µM | > 100 µM | > 100 µM | > 100 µM | > 100 µM |  |  |  |  |  |  |  |  |  |  |
| C[N+](C)([O-])Cc1cc(-c2ccccc2)ccc1O | > 100 µM | > 100 µM | > 100 µM | > 100 µM | > 100 µM | > 100 µM | > 100 µM | > 100 µM | > 100 µM | > 100 µM |  |  |  |  |  |  |  |  |  |  |
| O=C(N/N=C(/COc1cccc(Cl)c1)N=Cc1cccnc1)c1ccncc1 | > 100 µM | > 100 µM | > 100 µM | > 100 µM | > 100 µM | > 100 µM | > 100 µM | > 100 µM | > 100 µM | > 100 µM |  |  |  |  |  |  |  |  |  |  |
| Cn1c(-c2ccc(N=NNc3ccc(-c4n[nH]c(=S)n4C)cc3)cc2)n[nH]c1=S | > 100 µM | > 100 µM | > 100 µM | 48.8 µM | > 100 µM |  | > 100 µM | > 100 µM | > 100 µM | > 100 µM |  |  |  |  |  |  |  |  |  |  |
| COC(=O)c1c(C(=O)OC)c2c3ccccc3n(C)c2c2c1c1ccccc1n2C | > 100 µM | > 100 µM | > 100 µM | > 100 µM | > 100 µM | > 100 µM | > 100 µM |  | > 100 µM | > 100 µM |  |  |  |  |  |  |  |  |  |  |
| COc1ccc(/C=C2/CCS(=O)(=O)c3ccc(C)cc3C2=O)cc1OC | 20.3 µM | 27.6 µM | > 100 µM | 70.8 µM | 27.3 µM | 25.8 µM | > 100 µM | > 100 µM | 36 µM | 25.4 µM |  |  |  |  |  |  |  |  |  |  |
| C=CCc1cccc(/C=N\N=C(/N)NO)c1O | > 100 µM | > 58.5 µM |  | 11.5 µM | 26.5 µM | 17.1 µM | 64.3 µM | > 100 µM | 7.09 µM | 30.6 µM |  |  |  |  |  |  |  |  |  |  |
| COc1ncnc2c1cnn2Cc1cn(CCCCO)nn1 | > 100 µM | > 100 µM | > 100 µM | > 100 µM | > 100 µM | > 100 µM | > 100 µM | > 100 µM | > 100 µM | > 100 µM |  |  |  |  |  |  |  |  |  |  |
| COc1ccc(-c2nc(-c3cnccn3)n(COCCO)n2)cc1 | > 100 µM | > 100 µM | > 100 µM |  | > 100 µM | > 100 µM | > 100 µM | > 100 µM | > 100 µM | > 100 µM |  |  |  |  |  |  |  |  |  |  |
| O=C(O)Cn1c2c(c3c(O)cccc31)C(=O)c1ccccc1-2 | > 100 µM | > 100 µM | > 100 µM | > 100 µM | > 100 µM | > 100 µM | > 100 µM | > 100 µM | > 100 µM | > 100 µM | > 100 µM | > 100 µM | > 100 µM | > 100 µM | > 100 µM | > 100 µM | > 100 µM | > 100 µM | > 100 µM | > 100 µM |
| CC(=O)Oc1c(C)c2c(c3ccccc13)OC(C)(C)C2 | 30.6 µM | 35 µM | 30.9 µM | 40.7 µM | 28 µM | 34.2 µM | 34.4 µM | 28.8 µM | 30.9 µM | 24.6 µM |  |  |  |  |  |  |  |  |  |  |
| CCCOC1OC(CS(=O)(=O)O)C(O)C(O)C1O (stereo not given) | > 100 µM | > 100 µM | > 100 µM | > 100 µM | > 100 µM | > 100 µM | > 100 µM |  | > 100 µM | > 100 µM |  |  |  |  |  |  |  |  |  |  |
| COc1ccc2c(CCNS(=O)(=O)c3ccccc3)c(C(C)=O)[nH]c2c1 | > 100 µM | > 100 µM | > 100 µM | > 100 µM | > 100 µM | > 100 µM | > 100 µM | > 100 µM | > 100 µM | > 57.1 µM |  |  |  |  |  |  |  |  |  |  |
| BrCC(Br)(c1ccccc1)c1ccccc1-c1cc(-c2ccccc2)cc(-c2ccccc2)n1 (stereo not given) | 30 µM | 6.65 µM | 21.6 µM | 15.1 µM | 36 µM | 11.9 µM | 8.35 µM | 8.5 µM | 8.92 µM | 8.92 µM |  |  |  |  |  |  |  |  |  |  |
| O=C(/C=C/c1ccc(O)c(O)c1)NCCc1ccc(-c2ccccc2)cc1 | > 100 µM | > 100 µM | > 100 µM |  | > 100 µM | > 100 µM | > 100 µM | > 100 µM | > 100 µM | > 100 µM |  |  |  |  |  |  |  |  |  |  |
| CN1C(=O)C23CCCCC2CC1(c1ccccc1)S3 (stereo not given) | > 100 µM | > 100 µM | > 100 µM | > 100 µM | > 100 µM |  | > 100 µM | > 100 µM | > 100 µM | 54.5 µM |  |  |  |  |  |  |  |  |  |  |
| Cc1ccc(C)n1-n1c(-c2ccccc2)n[nH]c1=O | > 100 µM | > 100 µM | > 100 µM | > 100 µM |  | > 100 µM | > 100 µM | > 100 µM | > 100 µM | > 100 µM |  |  |  |  |  |  |  |  |  |  |
